Marks after values point to notes of the source that are not given here. Where no end group is shown, it is not given here.
Tests used:
F11 cells = experiment: FLIPR calcium assay, activation of F11 cells; format: cell-based; settings: F11 cells, FLIPR; for Neuronal Cell Activation (EC50): Calcium 4 dye, max-min fluorescence in 300 s after peptide addition, PSS with 0.1% BSA, mean ± SEM, triplicate
Experimental: F11 cells were cultured as previously described. Cells were maintained on Ham’s F12 media supplemented with 10% fetal bovine serum (FBS), 100 µM hypoxanthine, 0.4 µM aminopterin, and 16 µM thymidine (Hybri-MaxTM, Sigma Aldrich, North Ryde, Australia). Then, 384-well imaging plates (Corning) were seeded 48 h prior to imaging resulting in 90–95% confluence at imaging. Cells were incubated for 30 min with the Calcium 4 assay component A according to the manufacturer’s instructions (Molecular Devices, Sunnyvale, CA, USA) in physiological salt solution (PSS; composition in mM: 140 NaCl, 11.5 D-glucose, 5.9 KCl, 1.4 MgCl2, 1.2 NaH2PO4, 5 NaHCO3, 1.8 CaCl2, 10 HEPES) at 37°C. Fluorescence was measured using a fluorescent imaging plate reader (FLIPR^TETRA) equipped with a CCD camera (Excitation: 470–490 nm, Emission: […]) (Molecular Devices, Sunnyvale, CA, USA). Signals were read every second for 10 s before, and 300 s after the addition of peptides in PSS supplemented with 0.1% bovine serum albumin. All data are the mean ± SEM of assays performed in triplicate. Maximum–minimum fluorescence in the 300 s period after peptide addition was recorded as the response. Concentration–response data were fitted with a four-parameter Hill equation (variable slope) using GraphPad Prism 8 to obtain effective concentration (EC50) values.

[1] = tested on: mouse dorsal root ganglion (DRG) cells; experiment: Calcium imaging of mammalian sensory neurons; format: cell-based; settings: 1 µM peptide, Fluo-4 calcium imaging, neuronal and non-neuronal cells
Experimental: Calcium imaging of a heterogenous population of mouse dorsal root ganglion (DRG) sensory neurons was performed as previously described. In brief, dorsal root ganglion (DRG) cells isolated from 4–8-week-old male C57BL/6 mice under ethics approval TRI/IMB/093/17 (University of Queensland Animal Ethics Committee, approval date 31/03/2017) were dissociated and then plated in Dulbecco’s modified Eagle’s medium (Gibco, Grand Island, NY, USA) containing 10% fetal bovine serum (FBS; Assaymatrix, Melbourne, Australia) and penicillin/streptomycin (Gibco) on a 96-well poly-D-lysine–coated culture plate (Corning, Lowell, MA, USA), and maintained overnight. Cells were loaded with Fluo-4 AM calcium indicator as per the manufacturer’s instructions (Thermo Fisher Scientific, Grand Island, NY, USA). After loading for 1 h, the dye solution was replaced with assay solution (Hanks’ balanced salt solution and 20 mM HEPES). Fluorescence corresponding to intracellular calcium ([Ca^2+]i) of typically 100–150 DRG cells per experiment was monitored in parallel using a Nikon Ti-E deconvolution inverted microscope, equipped with a Lumencor Spectra LED light source. Images were acquired at a 20× objective at one frame/s (excitation 485 nm; emission 521 nm). For each experiment, baseline fluorescence was monitored for 30 s and then a wash of assay solution was applied.

Drosophila melanogaster [2] = experiment: Drosophila melanogaster microinjection assay; format: in vivo; settings: intrathoracic injection, 50 nL, adult female flies, lethality at 24 h; three dose-response curves, ± SEM
Experimental: The insecticidal activity of the chemically synthesized 1a and analogues thereof were determined by injection into adult female D. melanogaster aged 3–5 days (mass 0.7–0.9 mg) as described previously. Analogues were dissolved in water and intrathoracically injected using pulled glass capillaries at a volume of 50 nL per fruit fly, and the results were compared against an equivalent injection volume of water alone. All injections were performed in the morning or early afternoon. At 24 h post-injection flies were monitored for lethality. Dose–response curves were constructed using 7–10 doses per analogue (each dose tested in eight flies) and three separate dose–response curves were constructed for each analogue. The lethality in the groups receiving the analogues were adjusted using the respective control group lethality using the Henderson-Tilton formula [20]. The median lethal dose (LD50) of each analogue was calculated based on the three dose–response curves using GraphPad Prism 8.0 [21]. One-way ANOVA followed by Dunnett’s multiple comparison test were used to compare LD50 values.

trypanosomes = settings: cited from earlier work
Source text: However, the anthelmintic activity of the dimers was only observed at concentrations 10-fold higher than required for neuronal cell activation, cytotoxicity and hemolysis.

Drosophila melanogaster [3] = settings: same assay; cited from earlier work
Haemonchus contortus = experiment: microbe, parasite or virus in culture; format: cell-based; settings: H. contortus Kirby isolate, egg to infective L3, 6 days, 26 °C; three experiments of duplicate assays, ± SEM; for 1a the component at higher concentrations (about 90% of population); read-out: Anthelmintic Activity (IC50), inhibition of larval development
Experimental: Sheep were infected with H. contortus Kirby isolate (field isolate from the University of New England Kirby Research Farm in 1986; susceptible to all commercial anthelmintics) and housed at the Commonwealth Scientific and Industrial Research Organisation (CSIRO) FD McMaster Laboratory, Armidale, NSW. All animal procedures were approved by the FD McMaster Animal Ethics Committee, CSIRO (Approval Number AEC 17/12, approval date 15.6.2017). Eggs were prepared from overnight fecal collection as described. In brief, feces were filtered through mesh filters, settled, and supernatant removed by vacuum. Eggs were recovered by density centrifugation using 10 and 25% (w/v) sucrose solutions, centrifuged at 650× g for 7 min. Eggs were recovered from the interface of the two sucrose layers, rinsed with distilled water, sterilized with bleach, rinsed again, and diluted to 4500 eggs/mL. Tylosin tartrate (800 μg/mL) and amphotericin B (25.0 μg/mL) were added, and eggs were used immediately for larval development assays.
Assays were conducted using 96-well microtitre plates, with each well containing 50 μL of 2% agar, 20 μL of egg solution and 20 μL of peptide solution in water. The commercial anthelmintic levamisole (Sigma Aldrich) was used as a positive control (final 1% v/v). Negative controls contained equivalent volumes of water or DMSO (final 1% v/v). Plates were incubated at 26 °C for six days. After 24 h, each well was fed with 10 μL of a nutrient solution containing Escherichia coli XL1-Blue1 (grown overnight at 37 °C) and growth medium. The growth medium consisted of yeast extract (1% w/v), Earle’s salt solution (10% v/v), saline solution (0.9% NaCl, w/v), and sodium bicarbonate (1 mM) in Luria-Bertani medium (LB). Larvae were killed and stained with Lugol’s iodine solution after six days. Larvae that had developed to the infective L3 stage were counted, and the numbers in treated assay wells were expressed as a percentage of the number of infective L3 stage larvae in multiple control wells. Concentrations that caused 50% inhibition (IC50 values) were calculated from three experiments of duplicate assays.

HEK293 cells = settings: HEK293, 24 h, resazurin; cited from earlier work
Experimental: (§1) Table 2 Summary of bioassay data for synthetic Mp1a and analogues, including effective concentration (EC50) for activation of F11 cells, concentrations that caused 50% inhibition (IC50) for inhibition of larval development of H. contortus; median lethal dose (LD50) for lethal insecticidal effects on D. melanogaster; concentrations required to induce 50% cell death (CC50) for effects on viability o | column: Cytotoxicity (CC50 µM) ^b

human red blood cells = settings: cited from earlier work
Experimental: as §1, with “Hemolysis (HC50” for “Cytotoxicity (CC50”

Row | Compound | Insecticidal Activity (LD50) (Drosophila melanogaster [2]) | LD50 (insecticidal potency) (Drosophila melanogaster [3]) [pmol/g] | Neuronal Cell Activation (EC50) (F11 cells) | IC50 (Haemonchus contortus) [µM] | Cytotoxicity (CC50) (HEK293 cells) [µM] | Hemolysis (HC50) (human red blood cells) [µM] | other results
1 | CC[C@H](C)[C@H](N)C(=O)N[C@@H](CC(=O)O)C(=O)N[C@@H](Cc1c[nH]c2ccccc12)C(=O)N[C@@H](CCCCN)C(=O)N[C@@H](CCCCN)C(=O)N[C@H](C(=O)N[C@@H](CC(=O)O)C(=O)N[C@@H](Cc1c[nH]c2ccccc12)C(=O)N[C@@H](CCCCN)C(=O)N[C@@H](CCCCN)C(=O)N[C@H](C(=O)N[C@@H](CO)C(=O)N[C@@H](CCCCN)C(=O)N[C@@H](CCCCN)C(=O)N[C@H](C(=O)N[C@H]1CSSC[C@@H](C(=O)N[C@@H](CCCCN)C(=O)N[C@@H](Cc2ccccc2)C(=O)N[C@@H](CC(C)C)C(N)=O)NC(=O)[C@H](C)NC(=O)[C@H](CCCCN)NC(=O)[C@H](CC(C)C)NC(=O)[C@H](CCSC)NC(=O)[C@H](C(C)C)NC(=O)[C@H](CCCCN)NC(=O)[C@@H](NC(=O)[C@@H](NC(=O)[C@H](CCCCN)NC(=O)[C@H](CCCCN)NC(=O)[C@H](CO)NC(=O)[C@@H](NC(=O)[C@H](CCCCN)NC(=O)[C@H](CCCCN)NC(=O)[C@H](Cc2c[nH]c3ccccc23)NC(=O)[C@H](CC(=O)O)NC(=O)[C@@H](NC(=O)[C@H](CCCCN)NC(=O)[C@H](CCCCN)NC(=O)[C@H](Cc2c[nH]c3ccccc23)NC(=O)[C@H](CC(=O)O)NC(=O)[C@@H](N)[C@@H](C)CC)C(C)C)C(C)C)[C@@H](C)O)CSSC[C@@H](C(=O)N[C@@H](CCCCN)C(=O)N[C@@H](Cc2ccccc2)C(=O)N[C@@H](CC(C)C)C(N)=O)NC(=O)[C@H](C)NC(=O)[C@H](CCCCN)NC(=O)[C@H](CC(C)C)NC(=O)[C@H](CCSC)NC(=O)[C@H](C(C)C)NC(=O)[C@H](CCCCN)NC1=O)[C@@H](C)O)C(C)C)C(C)C [Analogue 5a] | 415.4 ± 29.6 ^a pmol/g |  |  |  |  |  | Concentration at which cytolysis (rapid increase in fluorescence followed by decrease to or below baseline) was observed (F11 cells): ≥ 10 µM; Effect on [Ca2+]i of DRG cells [1]: activated all DRG cells and caused dye leakage
2 | cupiennin-1a: broadly cytolytic peptide from the wandering spider Cupiennius salei (GFGALFKFLAKKVAKTVAKQAAKQGAKYVVNKQME; ends and bridges not checked; UniProt P83619 1-35, looked up) |  |  |  |  |  |  | Selectivity for trypanosomes over human red blood cells (trypanosomes): > 400 fold
3 | ω-hexatoxin-Hv1a |  | 9 |  |  |  |  | 
4 | β-diguetoxin-Dc1a |  | 59 |  |  |  |  | 
5 | CC[C@H](C)[C@H](NC(=O)[C@@H](N)CC(C)C)C(=O)NCC(=O)N[C@@H](CC(C)C)C(=O)N[C@H](C(=O)N[C@@H](CO)C(=O)N[C@@H](CCCCN)C(=O)NCC(=O)N[C@H](C(=O)N[C@H]1CSSC[C@@H](C(=O)N[C@@H](CCCCN)C(=O)N[C@@H](CCCCN)C(=O)N[C@H](C(=O)N[C@@H](CC(C)C)C(=O)N[C@@H](CCCCN)C(=O)N[C@@H](CCC(N)=O)C(N)=O)C(C)C)NC(=O)[C@H](C(C)C)NC(=O)[C@H]([C@@H](C)O)NC(=O)[C@H](CCCCN)NC(=O)[C@H](C(C)C)NC(=O)[C@H](CC(C)C)NC(=O)[C@H](C(C)C)NC1=O)[C@@H](C)O)C(C)C [Analogue 4a] | > 600 pmol/g |  | inactive | 65.5 ± 5.5 | > 15 | > 15 | 
6 | CC[C@H](C)[C@H](N)C(=O)N[C@@H](CC(=O)O)C(=O)N[C@@H](Cc1c[nH]c2ccccc12)C(=O)N[C@@H](CCCCN)C(=O)N[C@@H](CCCCN)C(=O)N[C@H](C(=O)N[C@@H](CC(=O)O)C(=O)N[C@@H](Cc1c[nH]c2ccccc12)C(=O)N[C@@H](CCCCN)C(=O)N[C@@H](CCCCN)C(=O)N[C@H](C(=O)N[C@@H](CO)C(=O)N[C@@H](CCCCN)C(=O)N[C@@H](CCCCN)C(=O)N[C@H](C(=O)N[C@H]1CSSC[C@@H](C(=O)N[C@@H](CCCCN)C(=O)N[C@@H](Cc2ccccc2)C(=O)N[C@@H](CC(C)C)C(N)=O)NC(=O)[C@H](C)NC(=O)[C@H](CCCCN)NC(=O)[C@H](CC(C)C)NC(=O)[C@H](CCSC)NC(=O)[C@H](C(C)C)NC(=O)[C@H](CCCCN)NC1=O)[C@@H](C)O)C(C)C)C(C)C [Analogue 3a] | > 600 pmol/g |  | inactive | 46.8 ± 0.6 | > 20 | > 20 | 

Source: article PMC7400207, “It Takes Two: Dimerization Is Essential for the Broad-Spectrum Predatory and Defensive Activities of the Venom Peptide Mp1a from the Jack Jumper Ant Myrmecia pilosula” (Biomedicines, 2020)
